Measured values from patent US11104674B2 (Hoffmann-La Roche Inc., priority 2016, dated 2021).

Legend:
HBsAg = HBsAg assay (chemiluminescence immunoassay of secreted HBsAg); assay type: cell-based, HBV; conditions: HepG2.2.15 cells, CLIA of culture supernatant
Outline: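 HepG2.2.15 cells, in duplicate, treated with three-fold serial compound dilutions (1% DMSO final); secreted HBsAg in supernatant quantified by chemiluminescence immunoassay; IC50 is the concentration reducing HBsAg secretion by 50% versus the DMSO control.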

HBV DNA = HBV DNA assay (real-time qPCR of extracellular HBV DNA); assay type: cell-based; conditions: Hepatitis B virus, 144 h; Anti HBV DNA production activity in HepG2.2.15 cells; supernatant collected six days after treatment
Experimental: HepG2.2.15 cells (Acs et al. Proc Natl Acad Sci USA, 84, (1987), 4641-4), a constitutively HBV-expressing cell line were cultured in DMEM+Glutamax-I medium (Invitrogen, Carlsbad, Calif., USA), supplemented with 10% fetal bovine serum (Invitrogen) and G418 (Invitrogen) at a final concentration of 200 mg/L and maintained in 5% CO2 at 37° C.
The assay employs real-time qPCR (TaqMan) to directly measure extracellular HBV DNA copy number in the cell supernatant. HepG2.2.15 cells were plated in 96-well microtiter plates before treatment with complete medium (DMEM, Glutamax, 10% FBS, 1% Penicillin/Streptomycin, 250 μg/mL Genetycin, final DMSO concentration is 1%/o). Only the interior wells were utilized to reduce “edge effects” observed during cell culture, the exterior wells were filled with complete medium to help minimize sample evaporation. The HepG2.2.15 cells were treated 1 h later with various concentrations of a test compound in duplicate (top concentration used at 5 μM, 2 μM or 0.5 μM according to the HBsAg IC50 observed, with ⅓ successive dilutions (total of 10 dilutions). Six days following the initial administration of the test compound, the cell culture supernatant was collected; DNA extraction was performed by automated system (Magnapure) and then used in a real-time qPCR/TaqMan assay to determine HBV DNA copy numbers. Antiviral activity was calculated from the reduction in HBV DNA levels (IC50).
The compounds of the present invention were tested for their capacity to inhibit HBV DNA as described herein.

[1] = Hepatitis B virus, HepG2.2.15, HBsAg secretion

Compound	IC50 (HBsAg; [1]) [nM]	IC50 (HBV DNA) [nM]	IC50 (HBsAg; HBsAg secretion) [nM]
CC1c2cnc(-c3ncccn3)nc2CCN1c1cc(N2CCCS2(=O)=O)cc(F)n1 (stereo not drawn) [Example 115, 2-[2-Fluoro-6-(5-methyl-2-pyrimidin-2-yl-7,8-dihydro-5H-pyrido[4,3-d]pyrimidin-6-yl)-4-pyridyl]-1,2-thiazolidine1,1-dioxide]	4	3.2	
C[C@@H]1c2cnc(-c3ncccn3)nc2CCN1c1cc(N2CCN(S(C)(=O)=O)CC2)cc(F)n1 [Example 97, (−)-6-[6-Fluoro-4-(4-methylsulfonylpiperazin-1-yl)-2-pyridyl]-5-methyl-2-pyrimidin-2-yl-7,8-dihydro-5H-pyrido[4,3-d]pyrimidine]		1.9	3
CC1c2cnc(-c3ncccn3)nc2CCN1c1cc(N2CC(F)C2)cc(F)n1 (stereo not drawn) [Example 123, 6-[6-fluoro-4-(3-fluoroazetidin-1-yl)-2-pyridyl]-5-methyl-2-pyrimidin-2-yl-7,8-dihydro-5H-pyrido[4,3-d]pyrimidine]	12	0.43	
CCS(=O)(=O)N1CCN(c2cc(F)nc(N3CCc4nc(-c5ncccn5)ncc4C3C)c2)CC1 (stereo not drawn) [Example 90, 6-[4-(4-ethylsulfonylpiperazin-1-yl)-6-fluoro-2-pyridyl]-5-methyl-2-pyrimidin-2-yl-7,8-dihydro-5H-pyrido[4,3-d]pyrimidine]	5	1.1	
COC1CN(c2cc(F)nc(N3CCc4nc(-c5ncccn5)ncc4C3C)c2)C1 (stereo not drawn) [Example 112, 6-[6-fluoro-4-(3-methoxyazetidin-1-yl)-2-pyridyl]-5-methyl-2-pyrimidin-2-yl-7,8-dihydro-5H-pyrido[4,3-d]pyrimidine]	6	0.6	
CC1c2cnc(-c3ncccn3)nc2CCN1c1cc(NC(=O)CO)cc(F)n1 (stereo not drawn) [Example 3, N-[2-Fluoro-6-(5-methyl-2-pyrimidin-2-yl-7,8-dihydro-5H-pyrido[4,3-d]pyrimidin-6-yl)-4-pyridyl]-2-hydroxy-acetamide]	60		
COC1CCN(c2cc(F)nc(N3CCc4nc(-c5ncccn5)ncc4C3C)c2)C1 (stereo not drawn) [Example 20, 6-[6-fluoro-4-(3-methoxypyrrolidin-1-yl)-2-pyridyl]-5-methyl-2-pyrimidin-2-yl-7,8-dihydro-5H-pyrido[4,3-d]pyrimidine]	10	0.15	
CC1c2cnc(-c3ncccn3)nc2CCN1c1cc(F)cc(N2CCOC(CC(=O)O)C2)n1 (stereo not drawn) [Example 29, 2-[4-[4-fluoro-6-(5-methyl-2-pyrimidin-2-yl-7,8-dihydro-5H-pyrido[4,3-d]pyrimidin-6-yl)-2-pyridyl]morpholin-2-yl]acetic acid]	722		
CC(=O)N1CC(Nc2cc(F)nc(N3CCc4nc(-c5ncccn5)ncc4C3C)c2)C1 (stereo not drawn) [Example 140, 1-[3-[[2-fluoro-6-(5-methyl-2-pyrimidin-2-yl-7,8-dihydro-5H-pyrido[4,3-d]pyrimidin-6-yl)-4-pyridyl]amino]azetidin-1-yl]ethanone]	972		
CC1c2cnc(-c3ccccn3)nc2CCN1c1cc(N2CCCC(C(N)=O)C2)cc(F)n1 (stereo not drawn) [Example 75, 1-[2-fluoro-6-[5-methyl-2-(2-pyridyl)-7,8-dihydro-5H-pyrido[4,3-d]pyrimidin-6-yl]-4-pyridyl]piperidine-3-carboxamide]	39		
CC1c2cnc(-c3ncccn3)nc2CCN1c1cc(N(C)CCCCC(N)=O)cc(F)n1 (stereo not drawn) [Example 141, 5-[[2-fluoro-6-(5-methyl-2-pyrimidin-2-yl-7,8-dihydro-5H-pyrido[4,3-d]pyrimidin-6-yl)-4-pyridyl]-methyl-amino]pentanamide]	43		
CC1c2cnc(-c3ncccn3)nc2CCN1c1cc(N2CC3(COC3)C2)cc(F)n1 (stereo not drawn) [Example 130, 6-[2-fluoro-6-(5-methyl-2-pyrimidin-2-yl-7,8-dihydro-5H-pyrido[4,3-d]pyrimidin-6-yl)-4-pyridyl]-2-oxa-6-azaspiro[3.3]heptane]	12		
